Source: patent US8067042B1 (Mutual Pharmaceutical Company, Inc., priority 2007, dated 2011)
Where “and” joins values, the source holds several entries; their conditions need not be identical. Identical values can stand only once. Like-named read-outs stand apart in the source and are kept apart here.

Experiments:
[1] = target: T1, Human CYP1A2 + P450 Reductase SUPERSOMES (Homo sapiens, UniProt P05177)
T1 sequence (P05177 2-516 limits assumed): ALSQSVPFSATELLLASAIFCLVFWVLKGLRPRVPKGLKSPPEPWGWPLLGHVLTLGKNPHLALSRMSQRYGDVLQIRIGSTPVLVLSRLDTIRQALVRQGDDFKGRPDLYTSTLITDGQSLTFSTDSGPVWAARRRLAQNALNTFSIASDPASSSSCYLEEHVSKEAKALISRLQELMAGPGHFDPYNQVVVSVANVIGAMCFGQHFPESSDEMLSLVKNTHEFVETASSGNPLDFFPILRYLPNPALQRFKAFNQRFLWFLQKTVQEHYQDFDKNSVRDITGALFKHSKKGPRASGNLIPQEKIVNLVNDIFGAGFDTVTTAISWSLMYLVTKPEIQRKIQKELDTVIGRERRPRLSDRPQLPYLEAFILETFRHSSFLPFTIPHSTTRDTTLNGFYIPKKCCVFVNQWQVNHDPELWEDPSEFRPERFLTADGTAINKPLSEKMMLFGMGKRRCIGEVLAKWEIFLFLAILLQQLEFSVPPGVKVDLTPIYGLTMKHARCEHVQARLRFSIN
Experimental: (§1) In this study, individual CYP isoforms expressed from human cDNA and P450 reductase cDNA were used (BD SUPERSOMES™ Enzymes, BD Biosciences Discovery Labware, Woburn, Mass.). SUPERSOMES™ are microsomes from baculovirus-infected insect cells containing singly expressed recombinant human CYP enzymes.
(§2) After a 5-minute preincubation, an appropriate amount of the appropriate buffer was added to the reaction mixtures to make the final volume of 0.5 mL. The incubations were continued for 60 minutes.
(§3) All incubation reactions were terminated by adding 0.5 mL methanol, and the samples were transferred to cryovials and stored at −70±10° C. until analysis.

[2] = target: T2, Human CYP2A6 + P450 Reductase + Cytochrome b5 SUPERSOMES (Homo sapiens, UniProt P11509)
T2 sequence (P11509 1-494): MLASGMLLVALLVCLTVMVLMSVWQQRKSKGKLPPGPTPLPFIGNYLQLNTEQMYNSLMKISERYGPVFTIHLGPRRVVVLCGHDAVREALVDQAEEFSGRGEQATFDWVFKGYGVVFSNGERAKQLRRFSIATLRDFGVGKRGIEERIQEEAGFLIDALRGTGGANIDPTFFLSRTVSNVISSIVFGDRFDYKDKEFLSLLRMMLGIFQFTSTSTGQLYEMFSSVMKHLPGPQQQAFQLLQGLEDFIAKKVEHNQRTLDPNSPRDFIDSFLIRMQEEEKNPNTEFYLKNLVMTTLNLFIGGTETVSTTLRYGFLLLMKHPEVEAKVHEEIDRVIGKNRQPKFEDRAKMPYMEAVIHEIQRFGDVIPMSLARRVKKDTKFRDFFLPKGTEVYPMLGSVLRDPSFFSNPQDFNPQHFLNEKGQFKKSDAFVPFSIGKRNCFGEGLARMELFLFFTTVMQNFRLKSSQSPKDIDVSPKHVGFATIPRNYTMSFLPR
Experimental: as §1, §2, §3

[3] = target: T3, Human CYP2C8 + P450 Reductase + Cytochrome b5 SUPERSOMES (Homo sapiens, UniProt P10632)
T3 sequence (P10632 1-490): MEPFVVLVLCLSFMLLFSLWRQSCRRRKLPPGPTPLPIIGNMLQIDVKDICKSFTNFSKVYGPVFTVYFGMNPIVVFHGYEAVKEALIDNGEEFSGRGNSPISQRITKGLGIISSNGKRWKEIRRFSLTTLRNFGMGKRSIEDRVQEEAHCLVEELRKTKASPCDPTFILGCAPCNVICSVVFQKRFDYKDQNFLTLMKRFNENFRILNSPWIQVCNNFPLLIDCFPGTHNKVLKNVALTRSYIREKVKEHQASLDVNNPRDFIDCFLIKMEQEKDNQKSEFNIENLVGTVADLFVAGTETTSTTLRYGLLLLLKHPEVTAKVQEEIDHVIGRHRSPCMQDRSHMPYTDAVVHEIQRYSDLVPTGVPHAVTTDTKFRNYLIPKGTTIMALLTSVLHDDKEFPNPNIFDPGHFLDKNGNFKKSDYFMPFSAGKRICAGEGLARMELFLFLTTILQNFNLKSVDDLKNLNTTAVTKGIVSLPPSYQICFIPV
Experimental: as §1, §2, §3

[4] = target: Human CYP2D6*1 + P450 Reductase SUPERSOMES (Homo sapiens, UniProt P10635)
Experimental: as §1, §2, §3

[5] = 5 μM, 5 pmol enzyme, listed as megestrol acetate
[6] = 5 μM, 20 pmol enzyme, listed as megestrol acetate
[7] = 50 μM, 5 pmol enzyme, listed as megestrol acetate
[8] = 50 μM, 20 pmol enzyme, listed as megestrol acetate

With `CC(=O)O[C@]1(C(C)=O)CC[C@H]2[C@@H]3C=C(C)C4=CC(=O)CC[C@]4(C)[C@H]3CC[C@@]21C` [Megestrol Acetate, 17 α-acetyloxy-6-methylpregna-4,6-diene-3,20-dione] the “Individual Raw Data Observed” value ([1]; 5 μM, 5 pmol enzyme) was 2.044 µM and 2.183 µM and 2.216 µM, the “Percent of Parent Disappearance Individual” value ([1]; 5 μM, 5 pmol enzyme) was −2.76% and −9.79% and −11.4% and the “Percent of Parent Disappearance Mean ± SD” value ([1]; 5 μM, 5 pmol enzyme) was −7.99 ± 4.60%. For the same compound, the “Percent of Parent Disappearance Mean ± SD” value [1, 5] was “no disappearance of the substrate was detected”, the “Individual Raw Data Observed” value ([1]; 5 μM, 20 pmol enzyme) was 2.309 µM and 2.295 µM and 2.254 µM and the “Percent of Parent Disappearance Individual” value ([1]; 5 μM, 20 pmol enzyme) was 5.51% and 6.07% and 7.78%. For the same compound, the “Percent of Parent Disappearance Mean ± SD” value ([1]; 5 μM, 20 pmol enzyme) was 6.45 ± 1.18%, the “Percent of Parent Disappearance Mean ± SD” value [1, 6] was 6.45±1.18% and the “Individual Raw Data Observed” value ([1]; 50 μM, 5 pmol enzyme) was 20.03 μM (2×) and 19.46 μM. The “Percent of Parent Disappearance Individual” value ([1]; 50 μM, 5 pmol enzyme) was −5.05% and −5.02% and −2.05%, the “Percent of Parent Disappearance Mean ± SD” value ([1]; 50 μM, 5 pmol enzyme) was −4.04 ± 1.72% and the “Percent of Parent Disappearance Mean ± SD” value [1, 7] was “no disappearance of the substrate was detected”. For the same compound, the “Individual Raw Data Observed” value ([1]; 50 μM, 20 pmol enzyme) was 19.6 µM and 20.86 µM and 20.65 µM, the “Percent of Parent Disappearance Individual” value ([1]; 50 μM, 20 pmol enzyme) was 11.0% and 5.29% and 6.24% and the “Percent of Parent Disappearance Mean ± SD” value ([1]; 50 μM, 20 pmol enzyme) was 7.51 ± 3.06%. The “Percent of Parent Disappearance Mean ± SD” value [1, 8] was 7.51±3.06%, the “Individual Raw Data Observed” value ([2]; 5 μM, 5 pmol enzyme) was 2.313 µM and 2.35 µM and 2.527 µM and the “Percent of Parent Disappearance Individual” value ([2]; 5 μM, 5 pmol enzyme) was 3.96% and 2.43% and −4.94%. For the same compound, the “Percent of Parent Disappearance Mean ± SD” value ([2]; 5 μM, 5 pmol enzyme) was 0.486 ± 4.76%, the “Percent of Parent Disappearance Mean ± SD” value [2, 5] was 0.486±4.76% and the “Individual Raw Data Observed” value ([2]; 5 μM, 20 pmol enzyme) was 2.456 µM and 2.487 µM and 2.684 µM. The “Percent of Parent Disappearance Individual” value ([2]; 5 μM, 20 pmol enzyme) was 1.36% and 0.129% and −7.81%, the “Percent of Parent Disappearance Mean ± SD” value ([2]; 5 μM, 20 pmol enzyme) was −2.11 ± 4.98% and the “Percent of Parent Disappearance Mean ± SD” value [2, 6] was 2.11±4.98%. The “Individual Raw Data Observed” value ([2]; 50 μM, 5 pmol enzyme) was 24.75 µM and 23.3 µM and 23.45 µM, the “Percent of Parent Disappearance Individual” value ([2]; 50 μM, 5 pmol enzyme) was −5.02% and 1.11% and 0.484% and the “Percent of Parent Disappearance Mean ± SD” value ([2]; 50 μM, 5 pmol enzyme) was −1.14 ± 3.38%. The “Percent of Parent Disappearance Mean ± SD” value [2, 7] was 1.14±3.38%, the “Individual Raw Data Observed” value ([2]; 50 μM, 20 pmol enzyme) was 21.74 µM and 22.68 µM and 23.15 µM and the “Percent of Parent Disappearance Individual” value ([2]; 50 μM, 20 pmol enzyme) was 4.54% and 0.420% and −1.66%. The “Percent of Parent Disappearance Mean ± SD” value ([2]; 50 μM, 20 pmol enzyme) was 1.10 ± 3.16%, the “Percent of Parent Disappearance Mean ± SD” value [2, 8] was 1.10±3.16% and the “Individual Raw Data Observed” value ([3]; 5 μM, 5 pmol enzyme) was 2.202 µM and 3.025 µM and 2.609 µM. For the same compound, the “Percent of Parent Disappearance Mean ± SD” value ([3]; 5 μM, 5 pmol enzyme) was −18.0 ± 18.6%, the “Percent of Parent Disappearance Mean ± SD” value [3, 5] was “no disappearance of megestrol acetate was detected” and the “Individual Raw Data Observed” value ([3]; 5 μM, 20 pmol enzyme) was 1.94 µM and 1.985 µM and 2.045 µM. For the same compound, the “Percent of Parent Disappearance Individual” value ([3]; 5 μM, 20 pmol enzyme) was 2.05% and −0.201% and −3.26%, the “Percent of Parent Disappearance Mean ± SD” value ([3]; 5 μM, 20 pmol enzyme) was −0.468 ± 2.66% and the “Percent of Parent Disappearance Mean ± SD” value [3, 6] was “no disappearance of megestrol acetate was detected”. The “Individual Raw Data Observed” value ([3]; 50 μM, 5 pmol enzyme) was 21.4 µM and 22.9 µM and 22.7 µM, the “Percent of Parent Disappearance Individual” value ([3]; 50 μM, 5 pmol enzyme) was 1.01% and −5.95% and −5.01% and the “Percent of Parent Disappearance Mean ± SD” value ([3]; 50 μM, 5 pmol enzyme) was −3.32 ± 3.78%. For the same compound, the “Percent of Parent Disappearance Mean ± SD” value [3, 7] was “no disappearance of megestrol acetate was detected”, the “Individual Raw Data Observed” value ([3]; 50 μM, 20 pmol enzyme) was 19.69 µM and 20.64 µM and 20.58 µM and the “Percent of Parent Disappearance Individual” value ([3]; 50 μM, 20 pmol enzyme) was −0.513% and −5.33% and −5.02%. For the same compound, the “Percent of Parent Disappearance Mean ± SD” value ([3]; 50 μM, 20 pmol enzyme) was −3.62 ± 2.70%, the “Percent of Parent Disappearance Mean ± SD” value [3, 8] was “no disappearance of megestrol acetate was detected” and the “Individual Raw Data Observed” value ([4]; 5 μM, 5 pmol enzyme) was 1.94 µM and 2.747 µM and 2.056 µM. For the same compound, the “Percent of Parent Disappearance Mean ± SD” value ([4]; 5 μM, 5 pmol enzyme) was −13.6 ± 022.0%, the “Percent of Parent Disappearance Mean ± SD” value [4, 5] was “no substrate disappearance was detected” and the “Individual Raw Data Observed” value ([4]; 5 μM, 20 pmol enzyme) was 2.325 µM and 2.386 µM and 2.39 µM. The “Percent of Parent Disappearance Individual” value ([4]; 5 μM, 20 pmol enzyme) was 4.68% and 2.15% and 2.01%, the “Percent of Parent Disappearance Mean ± SD” value ([4]; 5 μM, 20 pmol enzyme) was 2.95 ± 1.50% and the “Percent of Parent Disappearance Mean ± SD” value [4, 6] was 2.95±2.46%. The “Individual Raw Data Observed” value ([4]; 50 μM, 5 pmol enzyme) was 18.2 µM and 22.44 µM and 18.03 µM, the “Percent of Parent Disappearance Individual” value ([4]; 50 μM, 5 pmol enzyme) was −3.00% and −27.0% and −2.03% and the “Percent of Parent Disappearance Mean ± SD” value [4, 7] was “no substrate disappearance was detected”. The “Individual Raw Data Observed” value ([4]; 50 μM, 20 pmol enzyme) was 12.44 µM and 13.43 µM and 12.62 µM, the “Percent of Parent Disappearance Individual” value ([4]; 50 μM, 20 pmol enzyme) was 1.88% and −5.91% and 0.449% and the “Percent of Parent Disappearance Mean ± SD” value ([4]; 50 μM, 20 pmol enzyme) was −1.19 ± 04.14%. For the same compound, the “Percent of Parent Disappearance Mean ± SD” value [4, 8] was “no substrate disappearance was detected”.
